Test results as given in patent publication US4175125A, “Method for treating methicillin resistant staphylococcus aureus” (Eli Lilly and Company, priority 1978, dated 1979).
Converted amounts (≈) assume the structure as drawn.

How the values were obtained:
[1] = system: Staphylococcus aureus cultures; experiment: Broth dilution MIC in trypticase soy broth, low and high NaCl (Example 10); assay type: cell-based; settings: Staphylococcus aureus, TSB, read-out: MIC
Experimental: This example compares the antibiotic activities of methicillin, cephalothin and cephaloridine with the compounds of Examples 1, 2 and 3, in broth dilution tests. The MIC values, in μg/ml., are against the same Staphylococcus aureus cultures described in Example 9, except that in this example the cultures were grown in trypticase soy broth (TSB). Growing the cultures in two broth cultures, one having a low (0.5 percent) sodium chloride content and one having a high (5.0 percent) sodium chloride content is said to assist in identifying the methicillin-resistant cultures from those which are not methicillin-resistant. […] See Chabbert, Y. A., 1967 Postgrad. Med. J., 43 (suppl); 40-46. One expects that similar changes in MIC values for this type of culture to other β-lactam antibiotics, e.g., various penicillins and cephalosporins, to have similar implications. […] That is, methicillin-resistant S.aureus cultures are susceptible to the cephalosporin antibiotics used in this invention.

[2] = system: Staphylococcus aureus cultures; experiment: Agar dilution susceptibility test, phenylthioacetyl cephalosporins vs methicillin resistant S. aureus (Example 9); assay type: cell-based; settings: for MIC: Staphylococcus aureus, read-out: MIC
From the text: This example compares the antibiotic activities of three known compounds, methicillin, cephalothin, and cephaloridine, with three compounds from the above examples, in terms of minimum inhibitory concentration (MIC) values in microgram/milliliter units against various isolates of Staphylococcus aureus cultures. The culture numbers and the procedures used to obtain the reported data are disclosed by W. E. Wick and D. A. Preston in their article "Heterogeneous Methicillin-Resistant Staphylococcus Aureus" which appeared in Progress in Antimicrobial And Anticancer Chemotherapy, Proceedings of the 6th International Congress of Chemotherapy, Volume, 1, U. of Tokyo Press, Tokyo, (1970). In these agardilution susceptibility tests, the inocula were diluted to 10^3 bacteria per spot. Cultures 3055 (benzylpenicillin sensitive) and H232 (benzylpenicillin-resistant) are controls. The remaining cultures are methicillin-resistant, and, except for 3136, are clinical isolates. Culture 3136 is a 4th transfer laboratory selected mutant.

[3] = culture 3130, table part marked b
[4] = culture 3130, table part marked c
[5] = culture 3131, table part marked b
[6] = culture 3131, table part marked c
[7] = culture 3134, table part marked b
[8] = culture 3134, table part marked c
[9] = culture 3135, table part marked b
[10] = culture 3135, table part marked c
[11] = culture 3136, table part marked b
[12] = culture 3136, table part marked c
[13] = culture 3137, table part marked b
[14] = culture 3137, table part marked c
[15] = culture 3138, table part marked b
[16] = culture 3138, table part marked c
[17] = culture 3139, table part marked b
[18] = culture 3139, table part marked c
[19] = culture (Seattle) 966, table part marked b
[20] = culture (Seattle) 966, table part marked c
[21] = culture S61, table part marked b
[22] = culture S61, table part marked c

SMILES: CC(=O)OCC1=C(C(=O)O)N2C(=O)C(NC(=O)CSc3cc(Cl)ccc3Cl)C2SC1 (stereo not drawn) [Example 2, 7-(2,5-Dichlorophenylthioacetamido)-cephalosporanic acid]
- MIC ([1]; culture 3055 (control), table part marked b): 0.06 µg/mL (≈ 0.122 µM)
- MIC ([1]; culture 3055 (control), table part marked c): 0.06 µg/mL (≈ 0.122 µM)
- MIC [1, 3]: 1 µg/mL (≈ 2.04 µM)
- MIC [1, 4]: 8 µg/mL (≈ 16.3 µM)
- MIC [1, 5]: < 0.5 µg/mL
- MIC [1, 6]: 2 µg/mL (≈ 4.07 µM)
- MIC ([1]; culture 3132 (first column so headed), table part marked b): < 0.5 µg/mL
- MIC ([1]; culture 3132 (first column so headed), table part marked c): 2 µg/mL (≈ 4.07 µM)
- MIC ([1]; culture 3132 (second column so headed), table part marked b): < 0.5 µg/mL
- MIC ([1]; culture 3132 (second column so headed), table part marked c): 2 µg/mL (≈ 4.07 µM)
- MIC [1, 7]: 2 µg/mL (≈ 4.07 µM)
- MIC [1, 8]: 4 µg/mL (≈ 8.14 µM)
- MIC [1, 9]: < 0.5 µg/mL
- MIC [1, 10]: 2 µg/mL (≈ 4.07 µM)
- MIC [1, 11]: 0.25 µg/mL (≈ 0.509 µM)
- MIC [1, 12]: 4 µg/mL (≈ 8.14 µM)
- MIC [1, 13]: 2 µg/mL (≈ 4.07 µM)
- MIC [1, 14]: 4 µg/mL (≈ 8.14 µM)
- MIC [1, 15]: 2 µg/mL (≈ 4.07 µM)
- MIC [1, 16]: 2 µg/mL (≈ 4.07 µM)
- MIC [1, 17]: 0.5 µg/mL (≈ 1.02 µM)
- MIC [1, 18]: < 0.5 µg/mL
- MIC [1, 19]: 0.5 µg/mL (≈ 1.02 µM)
- MIC [1, 20]: 2 µg/mL (≈ 4.07 µM)
- MIC ([1]; culture H232 (control), table part marked b): 0.12 µg/mL (≈ 0.244 µM)
- MIC ([1]; culture H232 (control), table part marked c): 0.25 µg/mL (≈ 0.509 µM)
- MIC ([1]; culture Kavarnick 1138501, table part marked b): 0.5 µg/mL (≈ 1.02 µM)
- MIC ([1]; culture Kavarnick 1138501, table part marked c): 2 µg/mL (≈ 4.07 µM)
- MIC [1, 21]: 0.5 µg/mL (≈ 1.02 µM)
- MIC [1, 22]: 2 µg/mL (≈ 4.07 µM)
- MIC ([1]; culture S, table part marked b): 0.5 µg/mL (≈ 1.02 µM)
- MIC ([1]; culture S, table part marked c): 2 µg/mL (≈ 4.07 µM)
- MIC ([2]; culture 3055 (control, benzylpenicillin sensitive), table part marked b): < 0.06 µg/mL
- MIC ([2]; culture 3055 (control, benzylpenicillin sensitive), table part marked c): < 0.06 µg/mL
- MIC [2, 3]: 0.5 µg/mL (≈ 1.02 µM)
- MIC [2, 4]: 2 µg/mL (≈ 4.07 µM)
- MIC [2, 5]: 0.5 µg/mL (≈ 1.02 µM)
- MIC [2, 6]: 1 µg/mL (≈ 2.04 µM)
- MIC ([2]; culture 3132, table part marked b): 0.5 µg/mL (≈ 1.02 µM)
- MIC ([2]; culture 3132, table part marked c): 0.5 µg/mL (≈ 1.02 µM)
- MIC ([2]; culture 3133, table part marked b): 1 µg/mL (≈ 2.04 µM)
- MIC ([2]; culture 3133, table part marked c): 2 µg/mL (≈ 4.07 µM)
- MIC [2, 7]: 1 µg/mL (≈ 2.04 µM)
- MIC [2, 8]: 2 µg/mL (≈ 4.07 µM)
- MIC [2, 9]: 0.5 µg/mL (≈ 1.02 µM)
- MIC [2, 10]: 1 µg/mL (≈ 2.04 µM)
- MIC [2, 11]: 0.5 µg/mL (≈ 1.02 µM)
- MIC [2, 12]: 1 µg/mL (≈ 2.04 µM)
- MIC [2, 13]: 2 µg/mL (≈ 4.07 µM)
- MIC [2, 14]: 4 µg/mL (≈ 8.14 µM)
- MIC [2, 15]: 1 µg/mL (≈ 2.04 µM)
- MIC [2, 16]: 1 µg/mL (≈ 2.04 µM)
- MIC [2, 17]: 1 µg/mL (≈ 2.04 µM)
- MIC [2, 18]: 0.5 µg/mL (≈ 1.02 µM)
- MIC [2, 19]: 0.5 µg/mL (≈ 1.02 µM)
- MIC [2, 20]: 0.25 µg/mL (≈ 0.509 µM)
- MIC ([2]; culture H232 (control, benzylpenicillin-resistant), table part marked b): < 0.06 µg/mL
- MIC ([2]; culture H232 (control, benzylpenicillin-resistant), table part marked c): < 0.06 µg/mL
- MIC ([2]; culture Kavarmark 1138501, table part marked b): 0.5 µg/mL (≈ 1.02 µM)
- MIC ([2]; culture Kavarmark 1138501, table part marked c): 1 µg/mL (≈ 2.04 µM)
- MIC [2, 21]: 0.5 µg/mL (≈ 1.02 µM)
- MIC [2, 22]: 1 µg/mL (≈ 2.04 µM)
- effectiveness in in vitro tests vs methicillin, cephalothin and cephaloridine ([2]; various cultures of methicillin-resistant Staphylococcus aureus): substantially more effective than methicillin, cephalothin, and cephaloridine
